pIC50: −log10 of the molar value.
Tested on: BaF3-FL KIT D816V or BaF3-FL KIT V560G/D816V cell line
Assay: Cell-based assays of c-Kit mutant kinase activity (cell growth, ATPlite)
Settings: at least one of the c-kit cell assays of Example 26
Protocol: The c-Kit mutant D816V inhibitors were assessed using an engineered BaF3-FL KIT D816V or BaF3-FL KIT V560G/D816V cell line. The BaF3-FL KIT D816V cell lines were created by introduction of KIT mutant (D816V) full length constructs that render the cells dependent on the introduced kinase for growth. Inhibitors of c-Kit mutant D816V kinase reduce or eliminate the mediated c-kit mutant D816V kinase activation, resulting in reduced cell proliferation of the BaF3-FL Kit mutant D816V cells. This inhibition is measured by the effect of compound concentration on cell growth to assess IC50 values. BaF3-FL KIT D816V cells were seeded at 1×10^4 cells per well of a 96 well cell culture plate in 50 μl of cell culture medium of RPMI Medium 1X (Invitrogen #11875-093) supplemented with 10% FBS (Invitrogen #10438), 1% Non Essential Amino Acids(Invitrogen #11140), 1% Penicillin Streptomycin (Invitrogen #15140), 1% L-Glutamine (Invitrogen #25030-081). Compounds were dissolved in DMSO at a concentration of 5 mM and were serially diluted 1:3 for a total of eight points and added to the cells to a final maximum concentration of 10 μM in 100 μl cell culture medium (final concentration 0.2% DMSO). Cells were also treated with Dasatinib as a positive control. The cells were incubated at 37° C., 5% CO2 for three days. ATPlite Buffer (Perkin Elmer #6016739) and substrate were equilibrated to room temperature, and enzyme/substrate Recombinant Firefly Luciferase/D-Luciferin was reconstituted. The cell plates were equilibrated to room temperature for 30 minutes, then lysed by addition of 25 uL per well of the ATPlite Reagent. The plate was mixed for 5 minutes on a plate shaker to lyse the cells. The plates were read on a Tecan Safire using Luminescence protocol modified to read 0.1 s per well. The luminescence reading assesses the ATP content, which correlates directly with cell number such that the reading as a function of compound concentration is used to determine the IC50 value.
Plasmids P75635 and P75565 were engineered for mammalian cell expression. In both plasmids, full-length human v-kit Hardy-Zuckerman 4 feline sarcoma viral oncogene homolog gene (NCBI accession NM_000222, KIT, residues M1-V976) was subcloned into the pCI-Neo vector (Promega E1841). Plasmid P75635 contains the mutation of residue Aspartic acid 816 to Valine. Plasmid P75565 contains the double mutation of residues Valine 560 to Glycine and Aspartic acid 816 to Valine. The pCI-neo Mammalian Expression Vector carries the human cytomegalovirus (CMV) immediate-early enhancer/promoter region to promote constitutive expression of KIT and contains the neomycin phosphotransferase gene, a selectable marker.
It is understood that the results of these assays may vary as assay conditions are varied. Inhibition levels determined under the conditions described herein represent a relative activity for the compounds tested under the specific conditions employed. The cell based assays are likely to show variability due to the complexity of the system and the sensitivity thereof to any changes in the assay conditions. […] In some instances, the compounds were not tested in all of the assays, or assay results were not valid.

Row | SMILES | pIC50
1 | Cc1n[nH]c(C(=O)Nc2cnc3[nH]c(-c4ccc(C(=O)N5CCCC5)cc4)cc3c2)c1C [P-2101, 3,4-dimethyl-N-[2-[4-(pyrrolidine-1-carbonyl)phenyl]-1H-pyrrolo[2,3-b]pyridin-5-yl]-1H-pyrazole-5-carboxamide] | > 5.00
2 | Cc1cnccc1-c1cc2cc(NC(=O)c3n[nH]c(C)c3C)cnc2[nH]1 [P-2251, 4,5-dimethyl-N-(2-(3-methylpyridin-4-yl)-1H-pyrrolo[2,3-b]pyridin-5-yl)-1H-pyrazole-3-carboxamide] | > 5.00
3 | Cc1cc2cc(NC(=O)c3[nH]nc(C)c3C)cnc2[nH]1 [P-2302, 3,4-dimethyl-N-(2-methyl-1H-pyrrolo[2,3-b]pyridin-5-yl)-1H-pyrazole-5-carboxamide] | > 5.00
4 | Cc1n[nH]c(C(=O)Nc2cnc3[nH]c(-c4cccc5c4OCCO5)cc3c2)c1C [P-2305, N-[2-(2,3-dihydro-1,4-benzodioxin-5-yl)-1H-pyrrolo[2,3-b]pyridin-5-yl]-3,4-dimethyl-1H-pyrazole-5-carboxamide] | > 5.00
5 | Cc1[nH]nc(C(=O)Nc2cnc3[nH]c(-c4ccnc(N5CCCC5)c4)cc3c2)c1C [P-2208, 4,5-dimethyl-N-(2-(2-(pyrrolidin-1-yl)pyridin-4-yl)-1H-pyrrolo[2,3-b]pyridin-5-yl)-1H-pyrazole-3-carboxamide] | > 5.00
6 | Cc1[nH]nc(C(=O)Nc2cnc3[nH]c(-c4cnn(C5CNC5)c4C)cc3c2)c1C [P-2197, N-(2-(1-(azetidin-3-yl)-5-methyl-1H-pyrazol-4-yl)-1H-pyrrolo[2,3-b]pyridin-5-yl)-4,5-dimethyl-1H-pyrazole-3-carboxamide] | > 5.00
7 | COc1cccc(-c2cc3cc(NC(=O)c4[nH]nc(C)c4C)cnc3[nH]2)c1 [P-2098, N-[2-(3-methoxyphenyl)-1H-pyrrolo[2,3-b]pyridin-5-yl]-3,4-dimethyl-1H-pyrazole-5-carboxamide] | > 5.00
8 | COCCNC(=O)c1cc(-c2cc3cc(NC(=O)c4n[nH]c(C)c4C)cnc3[nH]2)ccn1 [P-2220, 4-(5-(4,5-dimethyl-1H-pyrazole-3-carboxamido)-1H-pyrrolo[2,3-b]pyridin-2-yl)-N-(2-methoxyethyl)picolinamide] | > 5.00
9 | O=C(Nc1cnc2[nH]c(-c3ccccc3)cc2c1)c1n[nH]c(C(F)(F)F)c1Cl [P-2232, 4-chloro-N-(2-phenyl-1H-pyrrolo[2,3-b]pyridin-5-yl)-5-(trifluoromethyl)-1H-pyrazole-3-carboxamide] | > 5.00
10 | Cc1n[nH]c(C(=O)Nc2cnc3[nH]c(-c4ccc(N5CCOCC5)nc4)cc3c2)c1C [P-2089, 3,4-dimethyl-N-[2-(6-morpholino-3-pyridyl)-1H-pyrrolo[2,3-b]pyridin-5-yl]-1H-pyrazole-5-carboxamide] | > 5.00
11 | Cc1[nH]nc(C(=O)Nc2cnc3[nH]c(-c4ccnc(C(=O)NCCN(C)C)c4)cc3c2)c1C [P-2221, 4-(5-(4,5-dimethyl-1H-pyrazole-3-carboxamido)-1H-pyrrolo[2,3-b]pyridin-2-yl)-N-(2-(dimethylamino)ethyl)picolinamide] | > 5.00
12 | Cc1n[nH]c(C(=O)Nc2cnc3[nH]c(-c4ccccc4F)cc3c2)c1C [P-2093, N-[2-(2-fluorophenyl)-1H-pyrrolo[2,3-b]pyridin-5-yl]-3,4-dimethyl-1H-pyrazole-5-carboxamide] | > 5.00
13 | CCOc1ncccc1-c1cc2cc(NC(=O)c3n[nH]c(C)c3C)cnc2[nH]1 [P-2239, N-(2-(2-ethoxypyridin-3-yl)-1H-pyrrolo[2,3-b]pyridin-5-yl)-4,5-dimethyl-1H-pyrazole-3-carboxamide] | > 5.00
14 | Cc1[nH]nc(C(=O)Nc2cnc3[nH]c(-c4ccccc4)cc3c2)c1C(F)F [P-2235, 4-(difluoromethyl)-5-methyl-N-(2-phenyl-1H-pyrrolo[2,3-b]pyridin-5-yl)-1H-pyrazole-3-carboxamide] | > 5.00
15 | Cc1n[nH]c(C(=O)Nc2cnc3[nH]c(-c4cnn(C)c4C)cc3c2)c1C [P-2084, N-[2-(1,5-dimethylpyrazol-4-yl)-1H-pyrrolo[2,3-b]pyridin-5-yl]-3,4-dimethyl-1H-pyrazole-5-carboxamide] | > 5.00
16 | COc1nc(C)ccc1-c1cc2cc(NC(=O)c3[nH]nc(C)c3C)cnc2[nH]1 [P-2170, N-[2-(2-methoxy-6-methyl-3-pyridyl)-1H-pyrrolo[2,3-b]pyridin-5-yl]-3,4-dimethyl-1H-pyrazole-5-carboxamide] | > 5.00
17 | Cc1[nH]nc(C(=O)Nc2cnc3[nH]c(-c4cccc(F)c4OC(F)F)cc3c2)c1C [P-2264, N-(2-(2-(difluoromethoxy)-3-fluorophenyl)-1H-pyrrolo[2,3-b]pyridin-5-yl)-4,5-dimethyl-1H-pyrazole-3-carboxamide] | > 5.00
18 | CC(=O)Nc1ccc(-c2cc3cc(NC(=O)c4[nH]nc(C)c4C)cnc3[nH]2)cc1 [P-2137, N-[2-(4-acetamidophenyl)-1H-pyrrolo[2,3-b]pyridin-5-yl]-3,4-dimethyl-1H-pyrazole-5-carboxamide] | > 5.00
19 | Cc1[nH]nc(C(=O)Nc2cnc3[nH]c(-c4ccnc(C(=O)N5CCSCC5)c4)cc3c2)c1C [P-2219, 4,5-dimethyl-N-(2-(2-(thiomorpholine-4-carbonyl)pyridin-4-yl)-1H-pyrrolo[2,3-b]pyridin-5-yl)-1H-pyrazole-3-carboxamide] | > 5.00
20 | Cc1[nH]nc(C(=O)Nc2cnc3[nH]c(-c4cccnc4C(F)(F)F)cc3c2)c1C [P-2241, 4,5-dimethyl-N-(2-(2-(trifluoromethyl)pyridin-3-yl)-1H-pyrrolo[2,3-b]pyridin-5-yl)-1H-pyrazole-3-carboxamide] | > 5.00
21 | CCN(CC)C(=O)c1cc(-c2cc3cc(NC(=O)c4n[nH]c(C)c4C)cnc3[nH]2)ccn1 [P-2230, 4-(5-(4,5-dimethyl-1H-pyrazole-3-carboxamido)-1H-pyrrolo[2,3-b]pyridin-2-yl)-N,N-diethylpicolinamide] | > 5.00
22 | Cc1[nH]nc(C(=O)Nc2cnc3[nH]cc(-c4ccnc(N5CCOCC5)c4)c3c2)c1C [P-2193, 4,5-dimethyl-N-(3-(2-morpholinopyridin-4-yl)-1H-pyrrolo[2,3-b]pyridin-5-yl)-1H-pyrazole-3-carboxamide] | > 5.00
23 | Cc1n[nH]c(C(=O)Nc2cnc3[nH]c(-c4ccc(C(=O)N(C)C)cc4)cc3c2)c1C [P-2085, N-[2-[4-(dimethylcarbamoyl)phenyl]-1H-pyrrolo[2,3-b]pyridin-5-yl]-3,4-dimethyl-1H-pyrazole-5-carboxamide] | > 5.00
24 | CC(C)=CC(=O)N1CCN(c2cc(-c3cc4cc(NC(=O)c5n[nH]c(C)c5C)cnc4[nH]3)ccn2)CC1 [P-2215, 4,5-dimethyl-N-(2-(2-(4-(3-methylbut-2-enoyl)piperazin-1-yl)pyridin-4-yl)-1H-pyrrolo[2,3-b]pyridin-5-yl)-1H-pyrazole-3-carboxamide] | > 5.00
25 | Cc1[nH]nc(C(=O)Nc2cnc3[nH]c(-c4ccnc(C(=O)N5CCN(C)CC5)c4)cc3c2)c1C [P-2217, 4,5-dimethyl-N-(2-(2-(4-methylpiperazine-1-carbonyl)pyridin-4-yl)-1H-pyrrolo[2,3-b]pyridin-5-yl)-1H-pyrazole-3-carboxamide] | > 5.00
26 | Cc1[nH]nc(C(=O)Nc2cnc3[nH]c(-c4ccnc(N5CCC(O)CC5)c4)cc3c2)c1C [P-2212, N-(2-(2-(4-hydroxypiperidin-1-yl)pyridin-4-yl)-1H-pyrrolo[2,3-b]pyridin-5-yl)-4,5-dimethyl-1H-pyrazole-3-carboxamide] | > 5.00
27 | Cc1[nH]nc(C(=O)Nc2cnc3[nH]c(C4=CCOCC4)cc3c2)c1C [P-2265, N-(2-(3,6-dihydro-2H-pyran-4-yl)-1H-pyrrolo[2,3-b]pyridin-5-yl)-4,5-dimethyl-1H-pyrazole-3-carboxamide] | > 5.00
28 | Cc1c(-c2ccccc2)n[nH]c1C(=O)Nc1cnc2[nH]c(-c3ccccc3)cc2c1 [P-2008, 4-methyl-3-phenyl-N-(2-phenyl-1H-pyrrolo[2,3-b]pyridin-5-yl)-1H-pyrazole-5-carboxamide] | > 5.00
29 | CCCCNC(=O)Nc1cccc(-c2cc3cc(NC(=O)c4[nH]nc(C)c4C)cnc3[nH]2)c1 [P-2134, N-[2-[3-(butylcarbamoylamino)phenyl]-1H-pyrrolo[2,3-b]pyridin-5-yl]-3,4-dimethyl-H-pyrazole-5-carboxamide] | > 5.00

Reference: patent US10301280B2 (Plexxikon Inc., priority 2012, dated 2019)
